Test results published in patent US7018995B2, “Carbonate and carbamate modified forms of glucocorticoids” (Sepracor Inc., priority 2002, dated 2006).

How the values were obtained:
[1] = tested on: WI-38 human lung fibroblast line (IL-1β-stimulated PGE2); test: Inhibition of IL-1β-stimulated PGE2 release in WI-38 cells; type: cell-based; details: WI-38 cells stimulated with recombinant human IL-1β, 24 hours incubation, PGE2 by EIA; read-out: IC50 (level of PGE2 in supernatants)
Protocol: Compounds as described above were tested in the following assay for biological activity. The WI-38 human lung fibroblast line was obtained from the ATCC (catalog number 75-CCL) and maintained in Basal Medium Eagle with Earle's salts (GibcoBRL product number 21010-046) supplemented with 2 mM glutamine and 10% fetal calf serum at 37° C. in a 7% CO2 (balance air), humidified atmosphere. One week before experiments were done, the WI-38 cells were seeded into 48-well tissue culture dishes and maintained in media containing 10% fetal calf serum. The cells were used when confluent. The day before the experiment the cells were fed fresh media containing 10% fetal calf serum (0.25 mL per well). On the day of the experiment the media was removed from the cells and 0.25 mL of media containing 5% fetal calf serum added.
To determine the IC50 values for the compounds, 1 to 1000 dilutions were made of the 5 mM stock solutions in DMSO to give 5 uM solutions. These solutions were serially diluted 1:2 in DMSO to give a series of 12 dilutions ranging from 5 uM to 2.4 nM. 0.0025 mL aliquots of the 12 dilutions were added to wells of the WI-38 cells to give final compound concentrations ranging from 50 nM to 0.024 nM. The cells were stimulated by addition of 0.001 mL of 0.025 ug/mL recombinant human Interleukin-1β (IL-1β-Calbiochem catalog number 407615) in 0.1% bovine serum albumin in phosphate buffered saline. The cells were incubated for 24 hours and the supernatants harvested. The level of PGE2 in the supernatants was assayed using a commercial Enzyme Immuno Assay (EIA) kit (Cayman Chemical catalog number 514010) after diluting 1:10 in EIA buffer according to the manufacturer's directions. The data from these experiments was fit to a 4 parameter logistic function using the IC50 routine in the Grafit 4 program (Erithecus software).

[2] = tested on: rat paw edema; test: Carrageenan rat paw edema model; type: in vivo; details: for onset of action / maximum activity at 24 hours: rat paw edema; for reduction of swelling (percent inhibition of edema volume vs vehicle): injected into paw
Protocol: The compounds of the invention were also tested in vivo in a rat paw edema model [Hirschelmann, R. and Bekemeier, H., Int J Tissue React 6, 471-475 (1984)], which persons of skill in the art accept as predictive of efficacy in treating asthma and rhinitis in humans.
Rat Paw Edema Protocol: Male Sprague Dawley rats Rj: SD (IOPS Han) (CEJ, France) weighing between 140 and 160 grams were used in the studies. Animals were housed in a temperature (19.5-24.5° C.), relative humidity (40-70%) and 12-hour light/dark cycle (light 6:00 a.m. to 6:00 p.m.)-controlled room, with ad libitum access to filtered tap-water and standard pelleted laboratory chow (U.A.R., France) throughout the studies. Carrageenan lambda type IV (Sigma, France) was prepared as a 2% (w/v) solution in saline. Compounds to be tested were dissolved in dimethylsulfoxide (DMSO) such that the indicated doses were in a final volume of 0.05 mL. Doses were expressed as mg/paw free active substance. From 17 to 19 hours before the studies the rats were fasted with free access to water. The paw volumes of the left hindpaws of the rats were measured using an electronic plethysmometer type 7140 (Ugo Basile-Italy) at time=0. Paw edema was then induced by injection of 0.05 mL of 2% carrageenan solution into the left hindpaws of the rats. Immediately after injection of the carrageenan, compounds in DMSO or vehicle alone were injected into the same paw in a volume of 0.05 mL in a blind and random fashion.
The paw volumes were measured at 1.5 hours, 3 hours, 4.5 hours and 24 hours after administration of the compounds. The edema volume of each rat at each time point was expressed as the change from the initial paw volume (time=0). A total of 5 rats were used for each compound dose and the average edema volume calculated for each dose. The anti-inflammatory effect in treated groups was expressed as the percent inhibition of edema volume compared to the vehicle-treated group at 1.5 hours, 3 hours, 4.5 hours and 24 hours.

[3] = at 24 hours, equimolar doses equivalent to 10 μg per paw of budesonide, FIG. 1

Compound | IC50 [1] | maximum activity at 24 hours [2] | further results
CCCC1OC2CC3C4CCC5=CC(=O)C=CC5(C)C4C(O)CC3(C)C2(C(=O)COC(=O)OCC(C)C)O1 (stereo not shown) [Example 1, Budesonide isobutylcarbonate] | 120 pM | – | –
Budesonide farnesolcarbonate [Example 17] | – | 86% | onset of action [2]: normal onset of action
CCCC1O[C@@H]2C[C@H]3[C@@H]4CCC5=CC(=O)C=C[C@]5(C)[C@H]4[C@@H](O)C[C@]3(C)[C@]2(C(=O)CO)O1 (stereo partly shown) [budesonide, reference compound] | 200 pM | – | reduction of swelling (percent inhibition of edema volume vs vehicle) [2, 3]: 46%
Budesonide phytolcarbonate [Example 16] | – | 69% | onset of action [2]: normal onset of action
Budesonide dodecylcarbonate [Example 2] | 530 pM | – | reduction of swelling (percent inhibition of edema volume vs vehicle) [2, 3]: 88%
Budesonide hexylcarbonate [Example 3] | 140 pM | – | –
CCCC1OC2CC3C4CCC5=CC(=O)C=CC5(C)C4C(O)CC3(C)C2(C(=O)COC(=O)OCCCCCCCCCCCN(C)C)O1 (stereo not shown) [Example 15, Budesonide 11-dimethylaminoundecylcarbonate] | – | 73% | –
CCCCCCCCCCOC(=O)OCC(=O)[C@@]12OC(CCC)O[C@@H]1C[C@H]1[C@@H]3CCC4=CC(=O)C=C[C@]4(C)[C@H]3[C@@H](O)C[C@@]12C (stereo partly shown) [Example 8, Budesonide decylcarbonate] | – | – | more efficacious than budesonide itself [2, 3]: 30%
Budesonide heptylcarbonate [Example 14] | – | – | efficacy compared with the C6 carbonate ester [2, 3]: more efficacious
